The subject of assay [1] is AHCY wild-type and mutated AHCY proteins. Kind of assay: Differential Scanning Fluorimetry (DSF), statements over the panel of proteins. Type of assay: binding, human. The following applies: wild-type and/or mutated AHCY proteins, 1-100 µM or 5-100 µM. On the technique in general: DSF heats the sample and reads unfolding from a dye or from intrinsic fluorescence.
For assay [2], the target named is T1, AHCY D86G (Homo sapiens, UniProt P23526, D86G).
T1 construct: made in house; host or cells: E. coli DH5a (with or without GroESL co-expression)
T1 sequence (P23526 1-432 D86G): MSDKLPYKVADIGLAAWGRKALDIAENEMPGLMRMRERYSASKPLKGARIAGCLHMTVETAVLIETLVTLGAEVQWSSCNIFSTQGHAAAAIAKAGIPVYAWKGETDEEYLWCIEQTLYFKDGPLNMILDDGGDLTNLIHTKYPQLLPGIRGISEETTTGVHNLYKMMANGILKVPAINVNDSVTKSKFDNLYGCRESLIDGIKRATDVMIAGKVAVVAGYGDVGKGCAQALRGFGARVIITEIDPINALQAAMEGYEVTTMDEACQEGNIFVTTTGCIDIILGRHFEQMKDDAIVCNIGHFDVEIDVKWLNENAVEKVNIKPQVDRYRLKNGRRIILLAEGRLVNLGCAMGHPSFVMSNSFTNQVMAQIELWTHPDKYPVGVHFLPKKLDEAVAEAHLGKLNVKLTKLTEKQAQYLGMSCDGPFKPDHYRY
Kind of assay: Differential Scanning Fluorimetry (DSF), thermal unfolding. The following applies: for ΔTm at 100 µM: read-out: ΔTM (midpoint of thermal unfolding shifted by); for TM = Temperature at the midpoint of protein unfolding transition: No NAD^+: 49,55. Type of assay: binding. On the procedure: (§1) The potential of the binding of NAD^+ or an analogue of NAD^+ to the NAD^+ binding site and of the binding of an analogue of a substrate of AHCY to the substrate binding site of AHCY in stabilizing the enzyme and its activity was analyzed by use of Differential Scanning Fluorimetry (DSF). The following substrates were tested in the given concentrations:
(§2) The following five mutant proteins were selected for testing: • R49C, D86G, Y143C, A89V and Y379C.
(§3) Fluorescence measurements were carried out on a 7900 HT fast real-time PCR System (Applied Biosystems, Thermo Fisher Scientific Inc. USA). The data was recorded in Abi Prism SDS software. Samples contained AHCY-Maltose-Binding Protein fusion proteins, HEPES, and SYPRO Orange fluorescence dye (SYPRO® Orange Protein Gel Stain from Invitrogen, Thermo Fisher Scientific Inc. USA) in a 1:1000 dilution), which binds to exposed hydrophobic sites of unfolded proteins. For this dye, the wavelengths used for excitation and emission are 492 nm, respectively 610 nm. The assay was measured in quadruplicates on a 96-well PCR plate. Thermal denaturation was monitored by following the changes in SYPRO Orange fluorescence emission (excitation at 492 nm, emission at 610 nm). The measurement was performed in a 25 °C to 75 °C range, at a rate of 2 °C/min. Thermal denaturation curves were obtained by the plotting of fluorescence intensities against temperature and TM values as the midpoint of the protein-unfolding transition were calculated using the Boltzmann sigmoidal non-linear regression function in GraphPad Prism (GraphPad Prism 5.0, GraphPad Software Inc. USA). All measurements were corrected for background reduction of SYPRO Orange fluorescence. To analyze the stabilizing effect of different compounds different concentrations of NAD^+, NAD^+ analogues and substrate analogues were added to the samples. Significances between wild-type and mutated apoenzymes and holoenzymes with stabilizing agents were calculated by one-way analysis of variance followed by Dunnett's post test (GraphPad Prism 5.0, GraphPad Software Inc. USA).
(§4) DSF is an excellent means to monitor global thermal unfolding events by probing the accessibility of the fluorescent dye Sypro Orange to hydrophobic groups within a protein. DSF was used in order to assess whether mutated AHCY proteins can be stabilized by various compounds at increasing temperatures. The stabilizing effect was evaluated by comparison of the unfolding transition midpoints (fraction unfolded = 0.5) as an operative measure of protein stability and by graphical analysis of the thermal denaturation curves. The midpoint of thermal unfolding of wild-type AHCY was shifted by an average of 2.27 °C towards higher temperatures by NAD^+ and NAD^+ analogues.

For assay [3], the target named is T2, AHCY A89V (Homo sapiens, UniProt P23526, A89V).
T2 construct: made in house; host or cells: E. coli DH5a (with or without GroESL co-expression)
T2 sequence (P23526 1-432 A89V): T1 sequence (P23526 1-432 D86G) with G86D, A89V
The description is as above. Format: binding. As to conditions: for TM = Temperature at the midpoint of protein unfolding transition: No NAD^+: 50,29. On the procedure: as §1, §2, §3, §4

The target of assay [4] is T3, AHCY R49C (Homo sapiens, UniProt P23526, R49C).
T3 construct: made in house; host or cells: E. coli DH5a (with or without GroESL co-expression)
T3 sequence (P23526 1-432 R49C): T1 sequence (P23526 1-432 D86G) with R49C, G86D
The description is as above. Type of assay: binding. The following applies: for TM = Temperature at the midpoint of protein unfolding transition: No NAD^+: 49,84. Here is the method: as §1, §2, §3, §4

In assay [5] the target is T4, AHCY Y379C (Homo sapiens, UniProt P23526, Y379C).
T4 construct: made in house; host or cells: E. coli DH5a (with or without GroESL co-expression)
T4 sequence (P23526 1-432 Y379C): T1 sequence (P23526 1-432 D86G) with G86D, Y379C
Described as above. Format: binding. As to conditions: No NAD^+: 50,01. Here is the method: as §1, §2, §3, §4

Assay [6] deals with T5, AHCY Y143C (Homo sapiens, UniProt P23526, Y143C).
T5 construct: made in house; host or cells: E. coli DH5a (with or without GroESL co-expression)
T5 sequence (P23526 1-432 Y143C): T1 sequence (P23526 1-432 D86G) with G86D, Y143C
The description is as above. Type of assay: binding. As to conditions: No NAD^+: 49,34. On the procedure:
as §1, §2, §3, §4

Assay [7] concerns the target T6, wild-type AHCY (Homo sapiens, UniProt P23526).
T6 construct: made in house; host or cells: E. coli DH5a (with or without GroESL co-expression)
The description is as above. Format: binding. The following applies: for TM = Temperature at the midpoint of protein unfolding transition: Wt, No NAD^+: 51,98. Here is the method:
as §1, §3, §4

Structures are written as SMILES. Where a chain is given by its changes, count along the chain named. Like-named read-outs stand apart in the source and are kept apart here.

T6 sequence (P23526 whole entry): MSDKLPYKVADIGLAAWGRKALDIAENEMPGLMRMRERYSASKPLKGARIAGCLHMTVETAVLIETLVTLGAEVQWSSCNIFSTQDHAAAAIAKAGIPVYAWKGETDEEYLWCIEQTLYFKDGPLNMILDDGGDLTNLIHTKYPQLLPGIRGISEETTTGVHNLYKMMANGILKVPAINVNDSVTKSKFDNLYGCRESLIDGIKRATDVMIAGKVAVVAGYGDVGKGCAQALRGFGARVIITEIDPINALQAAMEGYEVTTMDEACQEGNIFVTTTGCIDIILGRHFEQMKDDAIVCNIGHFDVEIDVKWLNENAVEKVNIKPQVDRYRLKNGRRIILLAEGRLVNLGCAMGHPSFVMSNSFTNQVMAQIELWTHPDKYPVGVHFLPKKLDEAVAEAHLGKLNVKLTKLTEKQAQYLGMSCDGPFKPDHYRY

For the compound `NC(=O)c1ncn([C@@H]2O[C@H](CO)[C@@H](O)[C@H]2O)n1` [ribavirin, 1-[(2R,3R,4S,5R)-3,4-dihydroxy-5-(hydroxymethyl)oxolan-2-yl]-1H-1,2,4-triazole-3-carboxamide], the “stabilizing effect on thermal stability (in words)” value (shortened to “stabilizing effect”) in assay [1] is recorded as “good stabilizing effect”.
As to `Nc1nccc2c1ncn2[C@@H]1C=C(CO)[C@@H](O)[C@H]1O` [DZNep, 3-Deazaneplanocin A], in assay [2] (D86G, concentration not given), the “increase in TM (stabilizing the unfolding by)” value stood at 11.18 °C. In addition, the ΔTm at 10 µM in assay [2] (read-out: ΔTM) turned out to be 13.5 °C.
Consider `C=C1CCC[C@H]2[C@](C)(CC3=C(O)C(=O)C=C(OC)C3=O)[C@@H](C)CC[C@]12C` [ilimaquinone], for which the “shifting the midpoint of thermal unfolding by” value in assay [3] (concentration not given) turned out to be 8.9 °C.
On to `NC(=S)c1ccc[n+]([C@@H]2O[C@H](COP(=O)([O-])OP(=O)(O)OC[C@H]3O[C@@H](n4cnc5c(N)ncnc54)[C@H](O)[C@@H]3O)[C@@H](O)[C@H]2O)c1` [S-NAD^+, thionicotinamide adenine dinucleotide], for which the ΔTm at 100 µM in assay [2] (D86G, 100 µM) is 6.7 °C. Moreover, in assay [1], the “stabilizing effect” value is “improved resistance against thermal stress”.
On to `NC(=O)c1ccc[n+]([C@@H]2O[C@H](COP(=O)([O-])OP(=O)(O)OC[C@H]3O[C@@H](n4cnc5c4ncn4ccnc54)[C@H](O)[C@@H]3O)[C@@H](O)[C@H]2O)c1` [E-NAD^+, nicotinamide 1,N^6-ethenoadenine dinucleotide], for which the “ΔTM (increase in TM)” value in assay [4] (concentration not given) came out at 4.36 °C. Moreover, the “stabilizing effect” value in assay [1] is “considerable stabilization”.
Take `NC(=O)c1ccc[n+]([C@@H]2O[C@H](COP(=O)([O-])OP(=O)(O)OC[C@H]3O[C@@H](n4cnc5c(N)ncnc54)[C@H](O)[C@@H]3O)[C@@H](O)[C@H]2O)c1` [NAD^+, nicotinamide adenine dinucleotide]: the “TM = Temperature at the midpoint of protein unfolding transition” value is 51,31 in assay [5] (5 µM); 52,45 in assay [5] (11 µM); 52,48 in assay [5] (100 µM); 51,88 in assay [2] (D86G, 5 µM); 53,51 in assay [2] (D86G, 11 µM); 54,02 in assay [2] (D86G, 100 µM). Further, the “TM = Temperature at the midpoint of protein unfolding transition” value in assay [4] (5 µM) is 51,48; in assay [4] (11 µM), 52,55; in assay [4] (100 µM), 52,75; in assay [6] (5 µM) it was 50,62; in assay [6] (11 µM), 52,36; in assay [6] (100 µM) it was 52,17. Also, the “TM = Temperature at the midpoint of protein unfolding transition” value in assay [3] (5 µM) is reported as 51,97; in assay [3] (11 µM) it was 53,52; in assay [3] (100 µM), 54,59; in assay [7] (5 µM), 52,24; in assay [7] (11 µM), 53,99; in assay [7] (100 µM), 54,32. The ΔTm at 100 µM in assay [2] stood at 4.47 °C; in assay [7] (AHCY wild-type, 100 µM, read-out: stabilized the unfolding transition by (shift of TM)), 2.34 °C. Moreover, the “stabilizing effect” value in assay [1] was “very good effects”.

Values taken from EP3187180A1, “ADENOSYLHOMOCYSTEINASE BINDING SUBSTANCES FOR MEDICAL USE” (Ludwig-Maximilians-Universität München, priority 2015, dated 2017).
